Test results reported in PMC5874719, “A π-Halogen Bond of Dibenzofuranones with the Gatekeeper Phe113 in Human Protein Kinase CK2 Leads to Potent Tight Binding Inhibitors” (Pharmaceuticals, 2018).
pIC50, pKi: −log10 of the molar value. Several values for one entry are separate records, joined by “and”; a condition that tells them apart may be missing. Identical values can stand only once. Like-named read-outs stand apart in the source and are kept apart here.

Experiments:
[1] = biological target: T1, human protein kinase CK2 holoenzyme (CK2α2β2) (Homo sapiens, UniProt P68400); experiment: CE-based CK2 inhibition assay (phosphorylation of substrate peptide […]); format: biochemical; conditions: for remaining activity at 10 µM: 10 µM compound, compared to activity without compound, read-out: residual enzymatic activity; for pIC50: CK2 holoenzyme, 100 µM ATP, 13 concentrations 0.01 nM to 10 µM
T1 construct: made in house
Protocol: The phosporylation of an artificial substrate peptide ([…]) by the purified holoenzyme was analyzed in a capillary electrophoresis (CE) assay as described before. This peptide is commonly used for the determination of CK2 activity and phosphorylation was determined in the presence and in the absence of the compounds. For this purpose a stock solution of 10 mM in DMSO was prepared for each compound and diluted in the assay to a final concentration of 10 µM. […] Consequently 13 concentrations of both dibenzofurans, ranging from 0.01 nM to 10 µM were tested on their inhibition of CK2 dependent substrate phosphorylation in the presence of 100 μM ATP. […] This can be used to determine the so-called apparent Ki (Ki app) for different substrate (ATP) concentrations.
Human protein kinase CK2 holoenzyme was pre-incubated for 10 min with 13 different concentrations of each compounds ranging from 0.01 nM to 10 μM before the enzymatic activity was determined. […] The resulting inhibition in % was set into relation to the concentration of the corresponding compound in a logarithmic scale. For the calculation of the sigmoidal curve fitting the date GraphPad Prism (GraphPad, La Jolla, CA, USA) was used, as well as for the compound concentrations corresponding to 50% enzyme inhibition.
Phosphorylation of the substrate peptide […] by human protein kinase CK2 holoenzyme was determined in the CE assay at different ATP-concentrations (6, 30, 60, 150, 300, and 400 μM).
In order to determine the inhibition toward human protein kinase CK2 holoenzyme, the dibenzo[b,d]furan derivatives were subjected to the CE-based CK2 assay, as already described for other novel CK2 inhibitors before. In summary, 78 µL of kinase buffer (50 mM Tris/HCl, pH 7.5, 100 mM NaCl, 10 mM MgCl2 and 1 mM DTT) containing 0.25 µg CK2 holoenzyme were supplemented with 2 µL of the test-compound dissolved in DMSO and incubated at 37 °C for 10 min. After the addition of 120 µL of assay buffer (25 mM Tris/HCl, pH 8.5, 150 mM NaCl, 5 mM MgCl2, 1 mM DTT, 190 µM substrate peptide […] and 100 µM ATP) the CK2 reactions were carried out for 15 min at 37 °C, before they were stopped by ice cooling and the addition of 5 µL of EDTA (10 mM, pH 8.0). The samples were then analyzed for phosphorylation of the CK2 substrate peptide by capillary electrophoresis. […] Controls for 100% and 0% inhibition were realized by samples containing pure DMSO and samples additionally lacking the CK2 holoenzyme. IC50 were calculated from the obtained dose response curves.

[2] = tested on: panel of 61 human protein kinases; experiment: kinase selectivity profile, whole panel; format: biochemical; conditions: 10 µM inhibitor, 10 µM ATP
Text: (§1) This demands further investigation.

FLT3 = biological target: T2, FLT3 (Homo sapiens, UniProt P36888); experiment: kinase selectivity profile; format: biochemical; conditions: 10 µM inhibitor, 10 µM ATP
T2 construct: purchased Reaction Biology Corp
Text: as §1

Aurora A [3] = biological target: T3, Aurora A (Homo sapiens, UniProt O14965); experiment: kinase selectivity profile; format: biochemical; conditions: 10 µM inhibitor, 10 µM ATP
T3 construct: purchased Reaction Biology Corp
T3 sequence (O14965 1-403): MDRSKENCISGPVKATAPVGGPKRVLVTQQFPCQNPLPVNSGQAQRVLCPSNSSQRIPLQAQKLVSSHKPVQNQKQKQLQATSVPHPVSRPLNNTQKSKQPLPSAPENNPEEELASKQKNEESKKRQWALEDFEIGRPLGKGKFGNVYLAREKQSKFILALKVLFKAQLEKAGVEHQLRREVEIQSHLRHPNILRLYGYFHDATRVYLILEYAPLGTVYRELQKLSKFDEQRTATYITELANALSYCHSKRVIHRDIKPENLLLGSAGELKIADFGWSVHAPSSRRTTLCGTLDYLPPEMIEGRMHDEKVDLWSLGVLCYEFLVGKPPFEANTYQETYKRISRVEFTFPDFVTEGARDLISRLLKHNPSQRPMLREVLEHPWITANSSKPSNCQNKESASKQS
Text: as §1

CAMKK2 = biological target: T4, CAMKK2 (Homo sapiens, UniProt Q96RR4); experiment: kinase selectivity profile; format: biochemical; conditions: 10 µM inhibitor, 10 µM ATP
T4 construct: purchased Reaction Biology Corp
Text: as §1

FLT3 (D835Y) = biological target: T5, FLT3 (D835Y) (Homo sapiens, UniProt P36888, D835Y); experiment: kinase selectivity profile; format: biochemical; conditions: 10 µM inhibitor, 10 µM ATP
T5 construct: purchased Reaction Biology Corp
Text: as §1

CK2α = conditions: towards CK2α, radiometric assay; cited from earlier work
LCK [4] = biological target: T6, LCK (Homo sapiens, UniProt P06239); experiment: biochemical
Protocol: (§2) For this purpose 61 kinases from different representative subgroups (and CK2α and CK2α’) were tested. Testing was performed with inhibitor concentrations of 10 µM and an ATP concentration of 10 μM. The residual enzyme activity as obtained was set in relation to a control without inhibitor.

KDR/VEGFR2 [5] = biological target: T7, KDR/VEGFR2 (Homo sapiens, UniProt P35968); conditions: 10 µM inhibitor, 10 µM ATP
Protocol: as §2

PIM1 = PIM1 (Homo sapiens, UniProt P11309); conditions: 10 µM inhibitor, 10 µM ATP
Protocol: as §2

FLT4/VEGFR3 = FLT4/VEGFR3 (Homo sapiens, UniProt P35916); conditions: 10 µM inhibitor, 10 µM ATP
Protocol: as §2

C-Met = C-Met (Homo sapiens, UniProt P08581); conditions: 10 µM inhibitor, 10 µM ATP
Protocol: as §2

PKA = PKA (Homo sapiens, UniProt P17612); conditions: 10 µM inhibitor, 10 µM ATP
Protocol: as §2

SKG1 = biological target: T8, SKG1 (Homo sapiens, UniProt O00141); parameters: method as in PMID 22387500; conditions: 10 µM inhibitor; cited from earlier work
T8 construct: purchased Reaction Biology Corp

Aurora A [6] = biological target: T3, Aurora A; parameters: method as in PMID 22387500; conditions: 10 µM inhibitor; cited from earlier work
[7] = biological target: T1, human protein kinase CK2 holoenzyme (CK2α2β2); parameters: method as in PMID 22387500; conditions: cited from earlier work
KDR/VEGFR2 [8] = biological target: T7, KDR/VEGFR2; parameters: purchased Reaction Biology Corp; method as in PMID 22387500; conditions: 10 µM inhibitor; cited from earlier work
LCK [9] = biological target: T6, LCK; parameters: method as in PMID 22387500; conditions: 10 µM inhibitor; cited from earlier work
PKD/PRKD2 = tested on: PKD/PRKD2; parameters: method as in PMID 22387500; conditions: 10 µM inhibitor; cited from earlier work
[10] = Morrison equation, ATP 6–400 µM, best fit line extrapolated to ATP concentration = 0, read-out: apparent Ki (Ki app)

T1 sequence (P68400 whole entry): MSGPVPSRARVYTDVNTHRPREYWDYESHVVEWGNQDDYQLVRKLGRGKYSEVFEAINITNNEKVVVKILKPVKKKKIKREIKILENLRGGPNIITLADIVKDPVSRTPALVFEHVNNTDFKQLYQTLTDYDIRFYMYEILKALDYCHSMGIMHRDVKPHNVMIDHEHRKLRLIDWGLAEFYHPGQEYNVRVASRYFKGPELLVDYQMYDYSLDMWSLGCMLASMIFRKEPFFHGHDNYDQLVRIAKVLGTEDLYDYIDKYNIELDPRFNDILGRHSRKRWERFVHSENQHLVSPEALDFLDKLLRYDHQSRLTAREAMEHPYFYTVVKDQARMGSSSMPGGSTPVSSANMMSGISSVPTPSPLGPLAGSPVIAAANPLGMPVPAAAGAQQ
T1 sequence (P67870 whole entry partner): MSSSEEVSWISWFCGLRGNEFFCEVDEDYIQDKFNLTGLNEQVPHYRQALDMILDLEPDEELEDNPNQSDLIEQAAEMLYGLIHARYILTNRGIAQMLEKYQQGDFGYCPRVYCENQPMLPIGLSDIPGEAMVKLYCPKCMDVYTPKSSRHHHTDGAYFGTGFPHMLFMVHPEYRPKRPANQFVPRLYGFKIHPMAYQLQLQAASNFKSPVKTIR
T4 sequence (Q96RR4 whole entry): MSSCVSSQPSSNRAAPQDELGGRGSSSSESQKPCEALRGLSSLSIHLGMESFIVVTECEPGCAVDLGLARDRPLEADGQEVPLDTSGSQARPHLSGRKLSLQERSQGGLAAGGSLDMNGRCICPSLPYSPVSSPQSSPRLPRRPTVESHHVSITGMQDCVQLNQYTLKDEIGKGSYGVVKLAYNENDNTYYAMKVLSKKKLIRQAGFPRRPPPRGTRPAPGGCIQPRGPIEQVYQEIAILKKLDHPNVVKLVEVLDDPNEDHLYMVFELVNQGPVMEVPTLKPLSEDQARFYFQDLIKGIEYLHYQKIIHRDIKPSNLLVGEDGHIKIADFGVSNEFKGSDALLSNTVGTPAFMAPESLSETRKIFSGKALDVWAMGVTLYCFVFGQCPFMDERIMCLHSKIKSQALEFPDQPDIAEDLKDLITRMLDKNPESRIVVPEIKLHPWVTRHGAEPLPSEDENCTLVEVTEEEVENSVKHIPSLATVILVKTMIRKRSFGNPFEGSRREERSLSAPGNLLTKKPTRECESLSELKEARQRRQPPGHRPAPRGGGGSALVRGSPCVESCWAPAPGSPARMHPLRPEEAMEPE
T6 sequence (P06239 whole entry): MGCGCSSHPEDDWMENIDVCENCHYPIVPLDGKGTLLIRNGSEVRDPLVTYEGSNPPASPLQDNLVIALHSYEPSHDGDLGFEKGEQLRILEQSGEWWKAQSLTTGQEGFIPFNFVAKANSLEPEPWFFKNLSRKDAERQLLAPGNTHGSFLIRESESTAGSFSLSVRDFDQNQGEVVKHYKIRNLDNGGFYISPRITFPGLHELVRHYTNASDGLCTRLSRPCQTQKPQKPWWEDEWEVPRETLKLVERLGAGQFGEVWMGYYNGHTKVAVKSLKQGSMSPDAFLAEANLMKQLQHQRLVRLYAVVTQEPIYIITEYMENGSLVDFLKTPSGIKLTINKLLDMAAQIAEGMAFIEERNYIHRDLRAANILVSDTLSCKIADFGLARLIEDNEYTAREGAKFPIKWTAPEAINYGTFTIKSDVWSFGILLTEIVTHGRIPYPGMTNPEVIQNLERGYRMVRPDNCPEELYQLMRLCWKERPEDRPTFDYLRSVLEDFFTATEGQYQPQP
T7 sequence (P35968 20-1356): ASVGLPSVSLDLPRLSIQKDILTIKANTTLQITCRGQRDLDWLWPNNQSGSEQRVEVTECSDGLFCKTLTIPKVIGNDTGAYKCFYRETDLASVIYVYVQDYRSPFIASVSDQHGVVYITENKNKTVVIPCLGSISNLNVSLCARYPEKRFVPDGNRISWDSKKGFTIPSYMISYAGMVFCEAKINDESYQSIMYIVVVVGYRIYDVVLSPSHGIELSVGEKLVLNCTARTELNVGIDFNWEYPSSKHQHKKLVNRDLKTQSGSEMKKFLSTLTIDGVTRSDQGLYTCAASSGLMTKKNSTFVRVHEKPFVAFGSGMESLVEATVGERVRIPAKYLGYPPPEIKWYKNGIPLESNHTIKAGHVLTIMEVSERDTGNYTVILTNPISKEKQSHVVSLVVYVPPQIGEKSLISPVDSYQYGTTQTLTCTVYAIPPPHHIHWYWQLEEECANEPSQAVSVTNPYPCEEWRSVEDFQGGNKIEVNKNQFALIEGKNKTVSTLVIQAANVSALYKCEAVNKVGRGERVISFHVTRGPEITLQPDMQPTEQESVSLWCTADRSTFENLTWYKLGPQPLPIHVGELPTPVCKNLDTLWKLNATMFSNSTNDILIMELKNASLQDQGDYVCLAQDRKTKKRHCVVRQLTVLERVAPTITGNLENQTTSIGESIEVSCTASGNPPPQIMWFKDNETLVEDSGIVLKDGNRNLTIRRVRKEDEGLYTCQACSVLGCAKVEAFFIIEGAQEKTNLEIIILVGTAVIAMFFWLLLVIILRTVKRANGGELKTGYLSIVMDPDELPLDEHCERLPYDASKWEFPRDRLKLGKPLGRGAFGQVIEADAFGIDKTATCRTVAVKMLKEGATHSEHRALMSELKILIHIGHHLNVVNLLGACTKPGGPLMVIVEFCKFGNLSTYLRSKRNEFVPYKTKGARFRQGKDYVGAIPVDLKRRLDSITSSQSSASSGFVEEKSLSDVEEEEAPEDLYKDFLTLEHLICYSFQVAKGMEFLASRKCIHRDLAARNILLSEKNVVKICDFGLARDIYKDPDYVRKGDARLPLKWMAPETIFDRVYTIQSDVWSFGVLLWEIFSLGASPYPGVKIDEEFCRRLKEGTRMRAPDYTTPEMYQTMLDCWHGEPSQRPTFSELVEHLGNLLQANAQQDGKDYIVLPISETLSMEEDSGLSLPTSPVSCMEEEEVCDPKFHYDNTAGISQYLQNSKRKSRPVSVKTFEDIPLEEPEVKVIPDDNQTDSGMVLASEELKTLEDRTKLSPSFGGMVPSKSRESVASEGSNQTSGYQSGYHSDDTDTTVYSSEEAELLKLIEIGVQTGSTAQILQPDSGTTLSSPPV
C-Met, sequence (P08581 25-1390): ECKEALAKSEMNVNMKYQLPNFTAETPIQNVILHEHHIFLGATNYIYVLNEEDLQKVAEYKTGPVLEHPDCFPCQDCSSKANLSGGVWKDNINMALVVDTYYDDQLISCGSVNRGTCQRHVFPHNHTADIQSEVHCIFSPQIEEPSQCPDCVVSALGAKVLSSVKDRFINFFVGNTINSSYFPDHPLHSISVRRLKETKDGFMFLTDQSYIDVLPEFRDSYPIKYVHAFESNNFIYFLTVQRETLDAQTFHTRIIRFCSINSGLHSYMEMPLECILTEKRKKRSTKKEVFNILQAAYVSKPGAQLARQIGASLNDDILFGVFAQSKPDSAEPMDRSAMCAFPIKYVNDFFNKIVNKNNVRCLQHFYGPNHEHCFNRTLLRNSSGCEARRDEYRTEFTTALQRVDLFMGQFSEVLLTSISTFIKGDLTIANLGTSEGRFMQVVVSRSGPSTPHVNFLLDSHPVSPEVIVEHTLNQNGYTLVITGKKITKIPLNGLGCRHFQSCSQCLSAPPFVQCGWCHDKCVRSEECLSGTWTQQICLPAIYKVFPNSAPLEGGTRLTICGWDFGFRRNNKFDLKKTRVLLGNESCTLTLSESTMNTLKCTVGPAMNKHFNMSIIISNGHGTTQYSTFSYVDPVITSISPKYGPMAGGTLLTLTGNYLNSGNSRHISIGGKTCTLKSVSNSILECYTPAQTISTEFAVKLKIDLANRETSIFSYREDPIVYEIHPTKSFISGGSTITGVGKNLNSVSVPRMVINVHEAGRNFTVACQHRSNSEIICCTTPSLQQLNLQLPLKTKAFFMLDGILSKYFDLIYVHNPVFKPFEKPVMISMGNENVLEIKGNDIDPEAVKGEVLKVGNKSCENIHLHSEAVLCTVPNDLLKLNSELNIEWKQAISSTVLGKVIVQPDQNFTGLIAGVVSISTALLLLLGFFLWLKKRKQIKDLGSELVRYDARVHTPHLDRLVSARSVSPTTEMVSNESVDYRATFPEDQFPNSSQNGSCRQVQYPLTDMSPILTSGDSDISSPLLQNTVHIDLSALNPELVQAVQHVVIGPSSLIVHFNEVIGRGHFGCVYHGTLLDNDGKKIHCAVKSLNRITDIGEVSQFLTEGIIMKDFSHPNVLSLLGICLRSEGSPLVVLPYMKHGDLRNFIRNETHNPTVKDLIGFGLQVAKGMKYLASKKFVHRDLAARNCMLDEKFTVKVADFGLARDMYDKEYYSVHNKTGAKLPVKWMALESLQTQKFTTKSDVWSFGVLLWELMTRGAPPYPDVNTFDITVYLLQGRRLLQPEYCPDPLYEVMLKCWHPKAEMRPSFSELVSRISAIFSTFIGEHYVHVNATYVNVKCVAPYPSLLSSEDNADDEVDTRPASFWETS
T8 sequence (O00141 whole entry): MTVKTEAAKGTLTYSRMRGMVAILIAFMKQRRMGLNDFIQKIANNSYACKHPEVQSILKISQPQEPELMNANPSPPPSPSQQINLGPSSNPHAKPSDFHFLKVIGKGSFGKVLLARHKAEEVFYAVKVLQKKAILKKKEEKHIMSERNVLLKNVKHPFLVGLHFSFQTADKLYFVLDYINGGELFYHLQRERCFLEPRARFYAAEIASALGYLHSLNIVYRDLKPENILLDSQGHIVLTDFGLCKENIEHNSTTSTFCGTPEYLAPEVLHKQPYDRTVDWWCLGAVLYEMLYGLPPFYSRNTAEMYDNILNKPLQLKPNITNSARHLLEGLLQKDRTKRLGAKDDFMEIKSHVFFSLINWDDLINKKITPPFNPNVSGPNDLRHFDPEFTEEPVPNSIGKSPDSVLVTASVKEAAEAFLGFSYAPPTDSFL

In the case of `COc1ccc(N/C=C2\C(=O)CCc3c2oc2cc(Cl)c(O)c(Cl)c32)cc1` [4a, 7,9-dichloro-1,2-dihydro-8-hydroxy-4-[(4-methoxyphenylamino)methylene]dibenzo[b,d]furan-3(2H)-one], the remaining activity at 10 µM [1] was < 1%, the pIC50 [1] was 8.15 and 8.30 and the pKi [1, 10] was 9.39 and 9.40. The pKi ([1]; repeated with double the amount of the enzyme CK2, different ATP concentrations, read-out: Ki app) was ~8.40, the “number of kinases out of the 61 kinases inhibited to more than 70%” value [2] was 6 and the “kinase inhibited more than 70% at 10 µM concentration” value (FLT3) was “FLT3”. For the same molecule, the “kinase inhibited more than 70% at 10 µM concentration” value (Aurora A [3]) was “Aurora A”, the “kinase inhibited more than 70% at 10 µM concentration” value (CAMKK2) was “CAMKK2” and the “kinase inhibited more than 70% at 10 µM concentration” value (FLT3 (D835Y)) was “FLT3 (D835Y)”.

For `COc1ccc(/N=C/c2c(O)ccc3c2oc2cc(Cl)c(O)c(Cl)c23)cc1` [compound 5, (E)-1,3-dichloro-6-[(4-methoxyphenylimino)methyl]dibenzo[b,d]furan-2,7-diol], the pIC50 (CK2α) is given as 8.15, the inhibition at 10 µM (LCK [4]) is given as 68% and the “kinase inhibited more than 70% at 10 µM concentration” value (KDR/VEGFR2 [5]) is given as “KDR/VEGFR2”. The “kinase inhibited more than 70% at 10 µM concentration” value (PIM1) was “PIM1”, the “kinase inhibited more than 70% at 10 µM concentration” value (FLT4/VEGFR3) was “FLT4/VEGFR3” and the “kinase inhibited more than 70% at 10 µM concentration” value (C-Met) was “C-Met”. The “kinase inhibited more than 70% at 10 µM concentration” value (PKA) was “PKA”, the remaining activity at 10 µM [1] was < 1% and the pIC50 [1] was 8.30 and 8.15. For the same molecule, the pKi [1, 10] was 9.34 and 9.40, the “number of kinases out of the 61 kinases inhibited to more than 70%” value [2] was 11 and the “kinase inhibited more than 70% at 10 µM concentration” value (FLT3) was “FLT3”. For the same molecule, the “kinase inhibited more than 70% at 10 µM concentration” value (Aurora A [3]) was “Aurora A”, the “kinase inhibited more than 70% at 10 µM concentration” value (CAMKK2) was “CAMKK2” and the “kinase inhibited more than 70% at 10 µM concentration” value (FLT3 (D835Y)) was “FLT3 (D835Y)”.

For `Cc1ccc(NC=C2C(=O)CCc3c2oc2c(Cl)c(Cl)c(O)cc32)cc1` [4b, 6,7-dichloro-1,4-dihydro-8-hydroxy-4-[(4-methylphenylamino)methylene]dibenzo[b,d]furan-3(2H)-one], the “kinase inhibited more than 70% at 10 µM concentration” value (SKG1) is listed as “SKG1”, the “kinase inhibited more than 70% at 10 µM concentration” value (Aurora A [6]) is listed as “Aurora A” and the pKi ([7]; ATP concentrations 6 µM to 400 µM) is listed as 7.82. For the same molecule, the pIC50 ([7]; earlier work of the authors) was 7.54, the “kinase inhibited more than 70% at 10 µM concentration” value (KDR/VEGFR2 [8]) was “KDR/VEGFR2” and the “kinase inhibited more than 70% at 10 µM concentration” value (LCK [9]) was “LCK”. The “kinase inhibited more than 70% at 10 µM concentration” value (PKD/PRKD2) was “PKD/PRKD2”.
